Assay results as given in ChEMBL document CHEMBL5360533, “Targeting ecto-5'-nucleotidase: A comprehensive review into small molecule inhibitors and expression modulators” (Eur J Med Chem, 2023).

Experiments:
[1] = target: T1, 5'-nucleotidase (Mus musculus, UniProt Q61503); experiment: Inhibition of mouse Ecto-5'-nucleotidase
T1 sequence (Q61503 whole entry): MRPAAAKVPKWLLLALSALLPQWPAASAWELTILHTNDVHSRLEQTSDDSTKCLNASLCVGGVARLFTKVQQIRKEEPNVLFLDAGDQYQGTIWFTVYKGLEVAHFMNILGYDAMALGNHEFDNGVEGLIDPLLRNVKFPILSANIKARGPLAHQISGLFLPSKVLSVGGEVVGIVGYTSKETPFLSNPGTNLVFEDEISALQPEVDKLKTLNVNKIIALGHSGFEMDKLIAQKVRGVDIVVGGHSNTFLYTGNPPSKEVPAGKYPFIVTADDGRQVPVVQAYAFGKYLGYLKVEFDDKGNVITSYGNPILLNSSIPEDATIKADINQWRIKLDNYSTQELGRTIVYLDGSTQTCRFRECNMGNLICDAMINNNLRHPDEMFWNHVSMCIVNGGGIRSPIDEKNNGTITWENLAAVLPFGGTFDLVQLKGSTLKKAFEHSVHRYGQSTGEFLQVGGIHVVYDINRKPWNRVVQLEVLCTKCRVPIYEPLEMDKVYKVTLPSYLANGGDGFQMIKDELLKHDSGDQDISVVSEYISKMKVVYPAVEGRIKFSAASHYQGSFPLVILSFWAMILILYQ

[2] = system: HeLa; experiment: Cytotoxicity against human HeLa cells assessed as inhibition of cell viability at 100 uM measured after 24 hrs by MTT assay; assay type: functional
[3] = Cytotoxicity against hamster BHK-21 cells assessed as inhibition of cell viability at 100 uM measured after 24 hrs by MTT assay; assay type: toxicity, cell-based, Mesocricetus auratus; conditions: read-out: INH
[4] = target: T2, Alkaline phosphatase, tissue-nonspecific isozyme (Homo sapiens, UniProt P05186); experiment: Inhibition of human TNAP
T2 sequence (P05186 whole entry): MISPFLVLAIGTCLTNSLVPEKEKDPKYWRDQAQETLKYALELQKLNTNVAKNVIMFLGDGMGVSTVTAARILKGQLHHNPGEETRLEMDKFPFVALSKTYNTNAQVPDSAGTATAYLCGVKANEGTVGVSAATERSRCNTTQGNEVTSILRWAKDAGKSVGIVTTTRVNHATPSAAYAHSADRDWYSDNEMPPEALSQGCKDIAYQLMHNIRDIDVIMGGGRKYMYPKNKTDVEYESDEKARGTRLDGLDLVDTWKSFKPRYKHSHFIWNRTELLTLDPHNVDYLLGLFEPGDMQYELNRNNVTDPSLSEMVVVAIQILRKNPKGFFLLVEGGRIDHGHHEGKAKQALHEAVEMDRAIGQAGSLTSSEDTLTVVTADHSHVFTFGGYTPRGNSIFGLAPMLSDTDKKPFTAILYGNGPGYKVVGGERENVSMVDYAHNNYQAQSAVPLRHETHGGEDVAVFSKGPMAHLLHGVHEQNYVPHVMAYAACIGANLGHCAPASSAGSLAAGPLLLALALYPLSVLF

[5] = target: T3, 5'-nucleotidase (Homo sapiens, UniProt P21589); experiment: Inhibition of human N-terminal Ecto-5'-nucleotidase
T3 sequence (P21589 whole entry): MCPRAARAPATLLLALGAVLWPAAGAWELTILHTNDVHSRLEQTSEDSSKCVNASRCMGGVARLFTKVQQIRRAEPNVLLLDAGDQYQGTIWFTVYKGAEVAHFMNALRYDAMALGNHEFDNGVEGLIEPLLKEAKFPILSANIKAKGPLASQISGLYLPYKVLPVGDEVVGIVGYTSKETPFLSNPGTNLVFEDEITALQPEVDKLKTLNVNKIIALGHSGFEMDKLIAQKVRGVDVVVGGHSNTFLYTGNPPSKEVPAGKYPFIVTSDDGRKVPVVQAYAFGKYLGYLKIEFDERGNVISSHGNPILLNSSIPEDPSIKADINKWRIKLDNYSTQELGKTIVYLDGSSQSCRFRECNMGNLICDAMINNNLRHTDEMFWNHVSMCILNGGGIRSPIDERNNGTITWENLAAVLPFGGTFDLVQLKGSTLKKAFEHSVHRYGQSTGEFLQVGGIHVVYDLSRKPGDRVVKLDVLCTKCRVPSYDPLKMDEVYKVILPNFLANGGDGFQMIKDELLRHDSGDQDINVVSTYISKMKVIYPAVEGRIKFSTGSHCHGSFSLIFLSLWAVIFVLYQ

[6] = target: T3, 5'-nucleotidase; experiment: Inhibition of human recombinant Ecto-5'-nucleotidase
[7] = target: T3, 5'-nucleotidase; experiment: Binding affinity to human recombinant Ecto-5'-nucleotidase assessed as inhibition constant
[8] = system: HeLa; experiment: Cytotoxicity against human HeLa cells; assay type: functional, cell-based
[9] = target: T3, 5'-nucleotidase; experiment: Inhibition of human recombinant CD73
[10] = target: T3, 5'-nucleotidase; experiment: Inhibition of N-terminal human Ecto-5'-nucleotidase at 250 uM relative to control
[11] = target: T3, 5'-nucleotidase; experiment: Inhibition of recombinant CD73 (unknown origin)
[12] = target: T4, 5'-nucleotidase (Rattus norvegicus, UniProt P21588); experiment: Inhibition of rat Ecto-5'-nucleotidase
T4 sequence (P21588 whole entry): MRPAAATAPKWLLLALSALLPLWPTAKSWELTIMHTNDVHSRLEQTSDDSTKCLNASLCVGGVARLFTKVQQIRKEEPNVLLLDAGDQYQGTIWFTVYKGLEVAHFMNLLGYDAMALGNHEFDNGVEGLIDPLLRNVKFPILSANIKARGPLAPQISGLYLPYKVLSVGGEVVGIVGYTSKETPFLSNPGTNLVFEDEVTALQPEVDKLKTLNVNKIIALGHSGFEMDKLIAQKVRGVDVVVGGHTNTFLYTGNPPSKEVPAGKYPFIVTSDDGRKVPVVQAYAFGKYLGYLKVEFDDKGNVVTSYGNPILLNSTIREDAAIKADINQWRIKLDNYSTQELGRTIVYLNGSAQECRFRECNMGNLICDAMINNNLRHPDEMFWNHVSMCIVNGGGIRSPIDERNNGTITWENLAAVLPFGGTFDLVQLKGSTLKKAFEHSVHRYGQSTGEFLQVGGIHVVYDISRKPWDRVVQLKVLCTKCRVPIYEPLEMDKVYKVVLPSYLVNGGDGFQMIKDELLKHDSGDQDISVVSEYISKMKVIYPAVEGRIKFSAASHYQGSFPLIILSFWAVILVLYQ

[13] = system: Trichomonas vaginalis; experiment: Antiprotozoal activity against Trichomonas vaginalis ATCC 30236 assessed as parasitic growth inhibition measured after 24 hrs by cytometry analysis; assay type: functional, organism-based; conditions: ATCC 30236, 24 h
[14] = target: T3, 5'-nucleotidase; experiment: Inhibition of human recombinant CD73 in MDA-MB-231 cells at 12.5 ug/ml incubated for 24 hrs by Western blot analysis relative to control; assay type: cell-based; conditions: dose 12.5 µg/ml
[15] = target: T3, 5'-nucleotidase; experiment: Inhibition of human recombinant CD73 in mouse 4T1 cells at 12.5 ug/ml incubated for 24 hrs by Western blot analysis relative to control; assay type: cell-based; conditions: dose 12.5 µg/ml
[16] = target: T3, 5'-nucleotidase; experiment: Inhibition of human Ecto-5'-nucleotidase in rat C6 cells at 100 uM relative to control; assay type: cell-based
[17] = target: T3, 5'-nucleotidase; experiment: Inhibition of human Ecto-5'-nucleotidase in rat C6 cells at 200 uM relative to control; assay type: cell-based
[18] = target: T3, 5'-nucleotidase; experiment: Inhibition of human CD73
[19] = target: T3, 5'-nucleotidase; experiment: Inhibition of human CD73 expressed in A-375 cells; assay type: cell-based

With `C/C(=N\NC(=O)c1ccncc1)N1N=C(c2ccc(F)cc2)CC1c1ccccc1` (stereo not given) the IC50 [1] was 190 nM.
`O=C1CNC(=S)N1/N=C/c1ccc(Br)s1` showed an inhibition at 100 µM [2] of 4.31% and a cytotoxicity at 24 h, 100 µM [3] of 4.31%.
For `O=c1oc2ccccc2cc1-c1csc(/N=C/c2cccc([N+](=O)[O-])c2)n1`, the IC50 [4] was 250 nM.
`COc1ccc(CN(C)C(=O)Nc2sc3c(c2C(=O)OC(C)(C)C)CCN(Cc2ccccc2)C3)cc1OC` gave an IC50 [5] of 45800 nM.
In the case of `O=C(CSc1nnc(-c2c[nH]c3ccccc23)n1Cc1ccccc1)NO`, the IC50 [6] is reported as 6200 nM.
With `Cc1ccc(C(=O)N2CCc3cc(-c4nc(NC(=O)CN5CCc6ccccc6C5)sc4C)ccc32)cc1` the Ki [7] was 530 nM.
`CC(=O)c1sc(N/N=C/c2cc3ccccc3[nH]2)nc1C` gave an IC50 [5] of 320 nM.
Compound `COc1ccc(/C=N/NC(=O)c2ccccc2)cc1` has an IC50 [1] of 13800 nM.
Compound `FC(F)(F)c1cc(Cl)c2cc(Br)ccc2n1` has an IC50 [5] of 1720 nM.
In the case of `CC(=O)c1sc(N/N=C/c2ccc(N(C)C)cc2)nc1C`, the IC50 [5] is reported as 320 nM.
`CC(=O)c1cc2ccccc2oc1=O` [3-ACETYLCOUMARIN] gave an IC50 [6] of 4660 nM.
With `CCc1ccc2occ(/C=N/NS(=O)(=O)c3ccc(C)cc3)c(=O)c2c1` the IC50 [8] was 86000 nM.
Compound `COc1cccc(COc2ccc(/C=N/N3C(=O)CNC3=S)cc2)c1` has an IC50 [5] of 280 nM, an inhibition at 100 µM [2] of 4.31% and a cytotoxicity at 24 h, 100 µM [3] of 4.31%.
`Nc1ncnc2c1ncn2[C@@H]1O[C@H](COC(C(=O)O)P(=O)(O)O)[C@@H](O)[C@H]1O` (stereo not given in full) showed an IC50 [9] of 19000 nM.
`C=Cn1cc[n+](Cc2ccc(O)c(C=O)c2)c1` gave an IC50 [5] of 1140 nM and an IC50 [1] of 1930 nM.
Work on `O=C1c2cc3c(cc2[C@@H]2[C@H](O)[C@@H](O)C=C4CCN1[C@H]42)OCO3` yielded an inhibition [10] of 88%.
`Cc1cc2c(cc1O)c(=O)oc1cc(/C=C/c3ccc(O)c(O)c3)oc(=O)c12` gave an IC50 [9] of 35100 nM.
`O=C(Nc1ccncc1)c1ccc(Cl)cc1` gave an IC50 [5] of 290 nM.
`O=S1(=O)NC(Nc2cccc3[nH]ncc23)=Nc2c1cc(Cl)c(F)c2O` gave an IC50 [9] of 15 nM.
`COc1cc(/C=N/NC(=O)c2ccccc2)ccc1O` showed an IC50 [1] of 680 nM.
Compound `C/C(=N\NS(=O)(=O)c1ccccc1)c1cc2ccccc2oc1=O` has an IC50 [6] of 290 nM.
In the case of `O=c1oc(/C=C/c2ccc(O)c(O)c2)cc2oc3cc(O)c(O)cc3c12` [PHELLIBAUMIN A], the IC50 [9] is reported as 17100 nM.
`CC(=O)c1sc(N/N=C/c2ccc[nH]2)nc1C` gave an IC50 [5] of 320 nM.
Work on `Fc1cccc(-c2ccc3nc(C(F)(F)F)cc(Cl)c3c2)c1` yielded an IC50 [5] of 1780 nM.
In the case of `O=P(O)(O)CP(=O)(O)C[C@@H](O)[C@H]1O[C@@H](n2cc(-c3cc(C(F)(F)F)cc(C(F)(F)F)c3)nn2)[C@H](O)[C@@H]1O`, the IC50 [11] is reported as 4800 nM.
`Cc1ccc(S(=O)(=O)N/N=C/c2coc3ccc(Br)cc3c2=O)cc1` gave an IC50 [8] of 30200 nM.
`COc1cc(/C=N/N2C(=O)CNC2=S)cc(OC)c1OC` showed an inhibition at 100 µM [2] of 4.31% and a cytotoxicity at 24 h, 100 µM [3] of 4.31%.
With `Cc1nn(-c2ccccc2)c2nc(-c3ccccc3O)ccc12` the IC50 [5] was 25800 nM and the IC50 [12] was 640 nM.
`CCCC(=O)c1c(O)c2c(c(CC3=C(O)C(C)(CC=C(C)C)C(=O)C(C(=O)C(C)C)=C3O)c1O)OC(C)(C)C=C2` (stereo not given) gave an IC50 [13] of 38000 nM.
Compound `O=C(N/N=C/c1cccnc1)c1ccccc1` has an IC50 [1] of 210 nM.
In the case of `O=P(O)(O)CP(=O)(O)C[C@@H](O)[C@H]1O[C@@H](n2cc(-c3ccc4ccccc4c3)nn2)[C@H](O)[C@@H]1O`, the IC50 [11] is reported as 860 nM.
`COc1ccc(-c2ccc3nc(C(F)(F)F)cc(-c4ccc(OC)cc4)c3c2)cc1` gave an IC50 [5] of 1130 nM.
For `COc1c2c(cc3c1C(=O)O[C@H]1[C@@H]3[C@H]3C(=C[C@@H]1O)CCN3C)OCO2`, the inhibition [10] was 59%.
For `Cc1ccc(-n2cc(C#N)c3cc4c(=O)oc5ccc(C)cc5c4nc32)cc1`, the IC50 [5] was 160 nM.
Work on `O=c1c(O)c(-c2ccc(O)c(O)c2)oc2cc(O)cc(O)c12` [QUERCETIN] yielded an IC50 [5] of 45300 nM.
With `O=C(N/N=C/c1ccc(Br)cc1)c1ccccc1` the IC50 [1] was 230 nM.
In the case of `CC1=CC(=O)C2(C=C(c3cc4oc(=O)c5cc(O)c(O)cc5c4c(=O)o3)c3cc(O)c(O)cc32)O1` (stereo not given), the IC50 [9] is reported as 6720 nM.
For `C=C[C@]1(C)C[C@@H](OC(=O)CSCCN(CC)CC)[C@]2(C)[C@H](C)CC[C@]3(CCC(=O)[C@H]32)[C@@H](C)[C@@H]1O`, the inhibition [14] was 53.9% and the inhibition [15] was 31.4%.
`CCOC(=O)C1=C(C)NC(=S)NC1c1ccc(N(C)C)cc1` (stereo not given) gave an inhibition [16] of 36% and an inhibition [17] of 48%.
For `Fc1cccc(-c2ccc3nc(C(F)(F)F)cc(-c4cccc(F)c4)c3c2)c1`, the IC50 [5] was 1190 nM.
With `O=P(O)(O)COC[C@H]1O[C@@H](n2ncc3c(N4CC5(CCc6ccccc65)C4)nc(Cl)nc32)[C@H](O)[C@@H]1O` the IC50 [18] was 0.05 nM and the IC50 [19] was 0.051 nM.
